US4698352A, “4-oxo-1,4-dihydronicotinic acid derivatives, salts thereof, and antibacterial agents containing the same” (Toyama Chemical Co., Ltd., priority 1982, dated 1987)
In brackets after ≈: the same amount, converted by molar mass. Where two headings read alike, the source gives them in different places.

Columns and labels:
Assay in all cases: Antibacterial activity (MIC), agar dilution
Assay type in all cases: cell-based
E. coli TK-3* = conditions: Escherichia coli, 20 h
Text: (§1) The amount of bacteria inoculated was 10^4 cells per plate (10^6 cells per ml).
(§2) * Penicillinase-producing bacteria

Ps. aeruginosa GN3379* = conditions: Pseudomonas aeruginosa, 20 h; Ps. aeruginosa GN3379, penicillinase-producing; 10^6 cells per ml; read-out: MIC
Text: as §1, §2

St. aureus F-137* = conditions: Staphylococcus aureus, 20 h
Text: as §1, §2

Kl. pneumoniae Y-4* = conditions: Klebsiella pneumoniae, 20 h, Kl. pneumoniae Y-4, penicillinase-producing; 10^6 cells per ml; read-out: MIC
Text: as §1, §2

E. coli TK-111 = conditions: Escherichia coli, TK111, 20 h, E. coli TK-111; 10^6 cells per ml; 37° C., 20 hours; read-out: MIC
Text: as §1

Kl. pneumoniae Y-50 = conditions: Klebsiella pneumoniae, Y50, 20 h, 10^6 cells per ml, 37° C., read-out: MIC
Text: as §1

Pro. mirabilis T-111 = conditions: Proteus mirabilis, 37° C.
Text: as §1

Ps. aeruginosa IFO3445 = conditions: Pseudomonas aeruginosa; Ps. aeruginosa IFO3445; 10^6 cells per ml; 37° C., 20 hours; read-out: MIC
Text: as §1

Pro. vulgaris GN3027 = conditions: Proteus vulgaris, GN3027, 20 h, Pro. vulgaris GN3027; 10^6 cells per ml; 37° C., 20 hours; read-out: MIC
Text: as §1

Aci. antitratus A-6 = conditions: 20 h, Aci. antitratus A-6; 10^6 cells per ml; 37° C., 20 hours; read-out: MIC
Text: as §1

Kl. pneumoniae Y-41 = conditions: Klebsiella pneumoniae, Y41, 10^6 cells per ml, 37° C., 20 hours, read-out: MIC
Text: as §1

E. coli NIHJ JC-2 = conditions: Escherichia coli, NIHJJC2, 20 h
Text: as §1

Ent. cloacae IID977 = conditions: Enterobacter cloacae, IID977, 20 h
Text: as §1

Pro. morganii T-216 = conditions: Morganella morganii, 37° C.
Text: as §1

St. aureus FDA209P = conditions: Staphylococcus aureus, FDA209P, 20 h
Text: as §1

Ps. aeruginosa S-68 = conditions: Pseudomonas aeruginosa
Text: as §1

Ps. aeruginosa GN918** = conditions: Pseudomonas aeruginosa, 20 h; Ps. aeruginosa GN918, cephalospolinase-producing; 10^6 cells per ml; read-out: MIC
Text: as §1
(§3) ** Cephalospolinase-producing bacteria

E. coli GN5482** = conditions: Escherichia coli, 20 h; E. coli GN5482, cephalospolinase-producing; 10^6 cells per ml; read-out: MIC
Text: as §1, §3

Pro. vulgaris GN76** = conditions: Proteus vulgaris
Text: as §1, §3

[1] = E. coli NIHJ JC-2, 10^6 cells per ml, 37° C., 20 hours, read-out: MIC
[2] = S68, Ps. aeruginosa S-68, 10^6 cells per ml, 37° C., 20 hours, read-out: MIC
[3] = 20 h, Pro. vulgaris GN76, cephalospolinase-producing, 10^6 cells per ml, read-out: MIC
[4] = E. coli TK-3, penicillinase-producing, 10^6 cells per ml, read-out: MIC
[5] = T216, 10^6 cells per ml, 20 hours, read-out: MIC
[6] = St. aureus FDA209P, 10^6 cells per ml, 37° C., 20 hours, read-out: MIC
[7] = St. aureus F-137, penicillinase-producing, 10^6 cells per ml, read-out: MIC
[8] = T111, 10^6 cells per ml, 20 hours, read-out: MIC
[9] = Ent. cloacae IID977, 10^6 cells per ml, 37° C., 20 hours, read-out: MIC

SMILES	MIC (E. coli TK-3*) [µg/mL]	MIC (Ps. aeruginosa GN3379*) [µg/mL]	MIC (St. aureus F-137*) [µg/mL]	MIC (Kl. pneumoniae Y-4*) [µg/mL]	MIC (E. coli TK-111) [µg/mL]	MIC (Kl. pneumoniae Y-50) [µg/mL]	MIC (Pro. mirabilis T-111; T111, 20 h, 10^6 cells per ml) [µg/mL]	MIC (Ps. aeruginosa IFO3445) [µg/mL]	MIC (Pro. vulgaris GN3027) [µg/mL]	MIC (Aci. antitratus A-6) [µg/mL]	MIC (Kl. pneumoniae Y-41) [µg/mL]	MIC (E. coli NIHJ JC-2; [1]) [µg/mL]	MIC (Ent. cloacae IID977) [µg/mL]	MIC (St. aureus FDA209P) [µg/mL]	MIC (Ps. aeruginosa S-68; [2]) [µg/mL]	MIC (Ps. aeruginosa GN918**) [µg/mL]	MIC (E. coli GN5482**) [µg/mL]	MIC (E. coli TK-3*; [4]) [µg/mL]	MIC (Pro. morganii T-216; [5]) [µg/mL]	MIC (Pro. vulgaris GN76**; GN76, 20 h) [µg/mL]	also measured
Cc1ccc(-c2cc(=O)c(C(=O)O)cn2-c2ccc(F)cc2)s1	3.13 (≈ 9.5 µM)	25 (≈ 75.9 µM)	3.13 (≈ 9.5 µM)	12.5 (≈ 38 µM)	0.78 (≈ 2.37 µM)	3.13 (≈ 9.5 µM)	6.25 (≈ 19 µM)	50 (≈ 152 µM)	0.2 (≈ 0.607 µM)	1.56 (≈ 4.74 µM)	6.25 (≈ 19 µM)	1.56 (≈ 4.74 µM)	3.13 (≈ 9.5 µM)	3.13 (≈ 9.5 µM)	25 (≈ 75.9 µM)	50 (≈ 152 µM)	0.2 (≈ 0.607 µM)				MIC (Pro. morganii T-216; T216, 20 h, 10^6 cells per ml): 3.13 µg/mL (≈ 9.5 µM); MIC (Pro. vulgaris GN76**; [3]): 1.56 µg/mL (≈ 4.74 µM)
O=C(O)c1cn(-c2ccc(F)cc2)c(-c2ccc(Br)s2)cc1=O		25 (≈ 63.4 µM)	3.13 (≈ 7.94 µM)	25 (≈ 63.4 µM)	1.56 (≈ 3.96 µM)	3.13 (≈ 7.94 µM)	12.5 (≈ 31.7 µM)	50 (≈ 127 µM)	0.39 (≈ 0.989 µM)	1.56 (≈ 3.96 µM)	12.5 (≈ 31.7 µM)		12.5 (≈ 31.7 µM)		25 (≈ 63.4 µM)	100 (≈ 254 µM)	0.39 (≈ 0.989 µM)	6.25 (≈ 15.9 µM)	6.25 (≈ 15.9 µM)	3.13 (≈ 7.94 µM)	MIC (E. coli NIHJ JC-2): 3.13 µg/mL (≈ 7.94 µM); MIC (St. aureus FDA209P; [6]): 1.56 µg/mL (≈ 3.96 µM)
CN(C)c1ccc(-c2cc(=O)c(C(=O)O)cn2-c2ccccc2F)cc1	3.13 (≈ 8.88 µM)	> 100		25 (≈ 70.9 µM)	0.78 (≈ 2.21 µM)	3.13 (≈ 8.88 µM)		> 100	0.78 (≈ 2.21 µM)	1.56 (≈ 4.43 µM)	6.25 (≈ 17.7 µM)	1.56 (≈ 4.43 µM)	6.25 (≈ 17.7 µM)		25 (≈ 70.9 µM)	> 100	0.39 (≈ 1.11 µM)			3.13 (≈ 8.88 µM)	MIC (St. aureus F-137*; [7]): 1.56 µg/mL (≈ 4.43 µM); MIC (Pro. mirabilis T-111; [8]): 25 µg/mL (≈ 70.9 µM); MIC (Pro. morganii T-216; T216, 20 h, 10^6 cells per ml): 6.25 µg/mL (≈ 17.7 µM); MIC (St. aureus FDA209P; [6]): 1.56 µg/mL (≈ 4.43 µM)
O=C(O)c1cn(-c2ccc(F)cc2)c(-c2ccc(Cl)s2)cc1=O		25 (≈ 71.5 µM)	3.13 (≈ 8.95 µM)	25 (≈ 71.5 µM)	1.56 (≈ 4.46 µM)	3.13 (≈ 8.95 µM)	12.5 (≈ 35.7 µM)	50 (≈ 143 µM)	0.39 (≈ 1.12 µM)	1.56 (≈ 4.46 µM)	12.5 (≈ 35.7 µM)		12.5 (≈ 35.7 µM)	3.13 (≈ 8.95 µM)	25 (≈ 71.5 µM)	100 (≈ 286 µM)	0.39 (≈ 1.12 µM)	6.25 (≈ 17.9 µM)	6.25 (≈ 17.9 µM)	3.13 (≈ 8.95 µM)	MIC (E. coli NIHJ JC-2): 3.13 µg/mL (≈ 8.95 µM)
COc1ccc(-c2cc(=O)c(C(=O)O)cn2-c2ccc(F)cc2)cc1	3.13 (≈ 9.22 µM)	25 (≈ 73.7 µM)	3.13 (≈ 9.22 µM)	12.5 (≈ 36.8 µM)	0.78 (≈ 2.3 µM)	3.13 (≈ 9.22 µM)	12.5 (≈ 36.8 µM)	25 (≈ 73.7 µM)	0.39 (≈ 1.15 µM)	1.56 (≈ 4.6 µM)	12.5 (≈ 36.8 µM)	1.56 (≈ 4.6 µM)		3.13 (≈ 9.22 µM)	25 (≈ 73.7 µM)	50 (≈ 147 µM)	0.2 (≈ 0.589 µM)		6.25 (≈ 18.4 µM)	3.13 (≈ 9.22 µM)	MIC (Ent. cloacae IID977; [9]): 6.25 µg/mL (≈ 18.4 µM)
CNc1ccc(-c2cc(=O)c(C(=O)O)cn2-c2ccc(F)cc2)cc1C		25 (≈ 70.9 µM)		12.5 (≈ 35.5 µM)	0.39 (≈ 1.11 µM)	1.56 (≈ 4.43 µM)	12.5 (≈ 35.5 µM)	50 (≈ 142 µM)	0.78 (≈ 2.21 µM)	0.78 (≈ 2.21 µM)	6.25 (≈ 17.7 µM)		6.25 (≈ 17.7 µM)	1.56 (≈ 4.43 µM)		50 (≈ 142 µM)	0.2 (≈ 0.568 µM)	3.13 (≈ 8.88 µM)			MIC (St. aureus F-137*; [7]): 0.78 µg/mL (≈ 2.21 µM); MIC (E. coli NIHJ JC-2): 1.56 µg/mL (≈ 4.43 µM); MIC (Pro. morganii T-216; T216, 20 h, 10^6 cells per ml): 6.25 µg/mL (≈ 17.7 µM); MIC (Ps. aeruginosa S-68; S68, 20 h): 12.5 µg/mL (≈ 35.5 µM); MIC (Pro. vulgaris GN76**; [3]): 3.13 µg/mL (≈ 8.88 µM)
CN(C)c1ccc(-c2cc(=O)c(C(=O)O)cn2-c2ccc(F)cc2F)cc1		25 (≈ 67.5 µM)		6.25 (≈ 16.9 µM)	0.2 (≈ 0.54 µM)	0.78 (≈ 2.11 µM)		12.5 (≈ 33.8 µM)	0.2 (≈ 0.54 µM)	0.39 (≈ 1.05 µM)	6.25 (≈ 16.9 µM)	0.78 (≈ 2.11 µM)			12.5 (≈ 33.8 µM)	12.5 (≈ 33.8 µM)	0.1 (≈ 0.27 µM)	3.13 (≈ 8.45 µM)	3.13 (≈ 8.45 µM)		MIC (St. aureus F-137*; [7]): 0.1 µg/mL (≈ 0.27 µM); MIC (Pro. mirabilis T-111; [8]): 3.13 µg/mL (≈ 8.45 µM); MIC (Ent. cloacae IID977; [9]): 3.13 µg/mL (≈ 8.45 µM); MIC (St. aureus FDA209P; [6]): 0.2 µg/mL (≈ 0.54 µM); MIC (Pro. vulgaris GN76**; [3]): 0.78 µg/mL (≈ 2.11 µM)
